Reference: US9850225B2, “Compounds useful as immunomodulators” (BRISTOL-MYERS SQUIBB COMPANY, priority 2014, dated 2017)
pIC50: −log10 of the molar value.

The compounds below were run against PD-1/PD-L1 interaction (PD-1-Ig / PD-L1-His) (Homo sapiens (Human), UniProt Q9NZQ7) (assay: PD-1/PD-L1 Homogenous Time-Resolved Fluorescence (HTRF) binding assay). Details: PD-1/PD-L1 HTRF binding assay; numeric value; read-out: Range or IC50.
Procedure, shortened: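 HTRF detection used 1 nM europium-cryptate anti-Ig and 20 nM APC anti-His. Compounds first saw 10 nM PD-L1-His for 15 min, and 20 nM PD-1-Ig was then added for another 15 min. Buffer was dPBS plus 0.1% BSA and 0.05% Tween-20. All concentrations are final.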

Chain of PD-1/PD-L1 interaction (PD-1-Ig / PD-L1-His) (Q9NZQ7 other isoform, or with tags, fused parts or gaps): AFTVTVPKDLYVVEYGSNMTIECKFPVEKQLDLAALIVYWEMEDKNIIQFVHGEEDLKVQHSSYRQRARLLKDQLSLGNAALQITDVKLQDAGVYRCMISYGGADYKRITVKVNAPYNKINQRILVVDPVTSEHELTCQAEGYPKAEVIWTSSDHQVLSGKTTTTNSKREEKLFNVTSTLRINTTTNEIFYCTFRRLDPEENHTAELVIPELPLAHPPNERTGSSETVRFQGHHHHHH

pIC50 | Compound
9.04 | CC(=O)NCCNCc1cc(C)c(OCc2cccc(-c3ccc4c(c3)OCCO4)c2C#N)cc1OCc1cncc(C#N)c1 [Example 1305, N-(2-(4-(2-cyano-3-(2,3-dihydrobenzo[b][1,4]dioxin-6-yl)benzyloxy)-2-((5-cyanopyridin-3-yl)methoxy)-5-methylbenzylamino)ethyl)acetamide]

Same assay, conditions: PD-1/PD-L1 HTRF binding assay; value given as range class; read-out: Range or IC50

pIC50 | Compound
8.00 to 9.22 | Cc1c(COc2cc(OCc3cccc(C#N)c3)c(CNC[C@@H](O)CC(=O)O)cc2Br)cccc1-c1ccc2c(c1)OCCO2 [Example 1300, (S)-4-((5-bromo-2-((3-cyanobenzyl)oxy)-4-((3-(2,3-dihydrobenzo[b][1,4]dioxin-6-yl)-2-methylbenzyl)oxy)benzyl)amino)-3-hydroxybutanoic acid]
8.00 to 9.22 | Cc1c(COc2cc(OCc3cccc(C#N)c3)c(CN[C@@H](CO)C(=O)O)cc2Br)cccc1-c1ccc2c(c1)OCCO2 [Example 1301, (S)-2-((5-bromo-2-((3-cyanobenzyl)oxy)-4-((3-(2,3-dihydrobenzo[b][1,4]dioxin-6-yl)-2-methylbenzyl)oxy)benzyl)amino)-3-hydroxypropanoic acid]
8.00 to 9.22 | Cc1c(COc2cc(OCc3cccc(C#N)c3)c(CN3CCCC[C@H]3C(=O)O)cc2Br)cccc1-c1ccc2c(c1)OCCO2 [Example 1302, (S)-1-(5-bromo-2-((3-cyanobenzyl)oxy)-4-((3-(2,3-dihydrobenzo[b][1,4]dioxin-6-yl)-2-methylbenzyl)oxy)benzyl)piperidine-2-carboxylic acid]
8.00 to 9.22 | Cc1c(COc2cc(OCc3cccc(C#N)c3)c(CN[C@](C)(CO)C(=O)O)cc2Br)cccc1-c1ccc2c(c1)OCCO2 [Example 1303, (R)-2-((5-bromo-2-((3-cyanobenzyl)oxy)-4-((3-(2,3-dihydrobenzo[b][1,4]dioxin-6-yl)-2-methylbenzyl)oxy)benzyl)amino)-3-hydroxy-2-methylpropanoic acid]
8.00 to 9.22 | Cc1c(COc2cc(OCc3cccc(C#N)c3)c(CN[C@@](C)(CO)C(=O)O)cc2Br)cccc1-c1ccc2c(c1)OCCO2 [Example 1304, (S)-2-((5-bromo-2-((3-cyanobenzyl)oxy)-4-((3-(2,3-dihydrobenzo[b][1,4]dioxin-6-yl)-2-methylbenzyl)oxy)benzyl)amino)-3-hydroxy-2-methylpropanoic acid]
8.00 to 9.22 | CC(=O)NCCNCc1cc(C)c(OCc2cccc(-c3ccc4c(c3)OCCO4)c2C#N)cc1OCc1cncc(C#N)c1 [Example 1305, N-(2-(4-(2-cyano-3-(2,3-dihydrobenzo[b][1,4]dioxin-6-yl)benzyloxy)-2-((5-cyanopyridin-3-yl)methoxy)-5-methylbenzylamino)ethyl)acetamide]
8.00 to 9.22 | Cc1cc(CNC[C@@H](O)CC(=O)O)c(OCc2cncc(C#N)c2)cc1OCc1cccc(-c2ccc3c(c2)OCCO3)c1C#N [Example 1307, (S)-4-(4-(2-cyano-3-(2,3-dihydrobenzo[b][1,4]dioxin-6-yl)benzyloxy)-2-((5-cyanopyridin-3-yl)methoxy)-5-methylbenzylamino)-3-hydroxybutanoic acid]
8.00 to 9.22 | Cc1cc(CN[C@@](C)(CO)C(=O)O)c(OCc2cncc(C#N)c2)cc1OCc1cccc(-c2ccc3c(c2)OCCO3)c1C#N [Example 1308, (S)-2-(4-(2-cyano-3-(2,3-dihydrobenzo[b][1,4]dioxin-6-yl)benzyloxy)-2-((5-cyanopyridin-3-yl)methoxy)-5-methylbenzylamino)-3-hydroxy-2-methylpropanoic acid]
8.00 to 9.22 | Cc1cc(CN2CCCC[C@H]2C(=O)O)c(OCc2cncc(C#N)c2)cc1OCc1cccc(-c2ccc3c(c2)OCCO3)c1C#N [Example 1309, (S)-1-(4-(2-cyano-3-(2,3-dihydrobenzo[b][1,4]dioxin-6-yl)benzyloxy)-2-((5-cyanopyridin-3-yl)methoxy)-5-methylbenzyl)piperidine-2-carboxylic acid]
8.00 to 9.22 | Cc1cc(CN[C@H](CO)C(=O)O)c(OCc2cncc(C#N)c2)cc1OCc1cccc(-c2ccc3c(c2)OCCO3)c1C#N [Example 1310, (R)-2-(4-(2-cyano-3-(2,3-dihydrobenzo[b][1,4]dioxin-6-yl)benzyloxy)-2-((5-cyanopyridin-3-yl)methoxy)-5-methylbenzylamino)-3-hydroxypropanoic acid]
